Values quoted from earlier work as cited in patent US9683982B2, “Method for diagnosis and/or prognosis of cancers by analysis of the mechanical properties of tumor cells” (Universität Leipzig, priority 2010, dated 2017).

System: cells of the cell line MCF7
Details: addition of 100 nmol/l TPA for 18 h in culture

CCCCCCCCCCCCCC(=O)O[C@@H]1[C@@H](C)[C@@]2(O)[C@@H](C=C(CO)C[C@]3(O)C(=O)C(C)=C[C@@H]23)[C@@H]2C(C)(C)[C@]12OC(C)=O [TPA, 12-O-tetradecanoylphorbol-13-acetate]
invasive potential and metastasis-forming potential: significant increase
